Here are results for seven molecules from US20100004244A1, “USE OF CB2 RECEPTOR AGONISTS FOR PROMOTING NEUROGENESIS” (priority 2006, published 2010).

In assay [1] the test system is neural progenitors. Briefly: Neurosphere generation and self-renewal of neural progenitors. The class given is cell-based, mouse. To be noted: for neurosphere generation in CB2-deficient neural progenitors / primary neurosphere generation / neural progenitor self-renewal: 30 nM; for primary neurosphere generation: wild-type E17.5 progenitors, 7 days; for neural progenitor self-renewal: wild-type progenitors, 5 consecutive passages, FIG. 3C. Here is the method:
Multipotent self-renewing progenitors were obtained from the dissected cortices of mice at the indicated developmental stages and grown in chemically-defined medium constituted by Dulbecco's modified Eagle's and F12 media supplemented with N2 (Invitrogen), 0.6% glucose, non-essential amino acids, 50 mM Hepes, 2 μg/ml heparin, 20 ng/ml epidermal growth factor and 20 ng/ml basic fibroblast growth factor [Aguado, T. et al., J. Neurosci. 26, 1551-61, 2006]. Clonal neurospheres were cultured at 1000 cells/ml, dissociated with accutase (Sigma-Aldrich, Missouri, USA) and experiments were carried out with early (up to 10) passage neurospheres. Neurosphere generation experiments were performed in 96-well dishes with 100 μl of medium, and the number of neurospheres was quantified at predetermined time points by phase-contrast microscopy. Embryonic neural progenitors from wild-type and CB2-deficient mice were cultured (10,000 cells/ml) in the continuous presence of cannabinoids or controls for the indicated number of passages (one passage every 4 days).
Adult neural progenitors were obtained from hippocampi of 4-month-old adult mice and cultured as described above. Neural progenitor cell differentiation was performed as described.

Assay [2] concerns neural progenitors. Briefly: BrdU cell proliferation assay in dissociated neurospheres. It counts as cell-based, mouse. The following applies: for number of BrdU-incorporating cells: 30 nM, 16 hours, FIG. 3D; for effect on HU-308 induction of cell proliferation: PD98059 10 μM, LY294,002 5 μM, with HU-308 30 nM, FIG. 3E, confirmed in neurosphere generation assays. Here is the method:
These studies involve the use of bromodeoxyuridine (BrdU), a thymidine analog incorporated into DNA during the S phase of the cell cycle, which allows visualizing cell proliferation. Neural progenitor proliferation was determined by quantifying BrdU-positive cells 16 hours after incubation with 10 μg/ml BrdU, followed by immunostaining [Aguado, T. et al., FASEB J. 19, 1704-6, 2005].
Results are expressed as percentage of BrdU-positive cells over total cells.

The next assay relates to ERK and Akt. Put plainly: ERK and Akt phosphorylation in neural progenitors (Western blot). The class given is cell-based, mouse. The following applies: FIG. 3F. Here is the method: Identical protein amounts of cleared cell extracts were subjected to SDS-PAGE, transferred to PVDF membranes, and following antibody incubations developed with enhanced chemiluminiscence detection kit [Aguado, T. et al., FASEB J. 19, 1704-6, 2005]. Loading controls were performed with an anti-α-tubulin antibody.

Assay [3] has as its system neural progenitor cell proliferation in the dentate gyrus. Put plainly: In vivo hippocampal neural progenitor proliferation (BrdU-positive cells in dentate gyrus). On the set-up: species or system mouse. The following applies: FIG. 4B; for hippocampal progenitor proliferation in vivo: wild-type adult mice, i.p. 5 consecutive days, HU-308 15 mg/kg, SR144528 1 mg/kg. The method, then:
Adult CB2 receptor knock-out male mice (8-week old) and their respective wild-type littermates were injected i.p. with 50 mg/kg BrdU daily for 3 days, and perfused 1 day later. […] Control animals received the corresponding vehicle injection (100 μl PBS supplemented with 0.5 mg defatted bovine serum albumin and 4% dimethylsulfoxide). BrdU was administered daily during the pharmacological administration period. In the case of experiments on kainate-induced excitotoxicity, animals were injected with 15 mg/kg kainate or vehicle. E17.5 mouse embryos from mothers injected twice with 100 mg/kg BrdU (30-min interval between injections) were obtained 1 h after the first injection.
At the end of the study, animals were euthanized and their brains were fixed into 4% paraformaldehyde in PBS until further analysis.
Mice were perfused and immunostaining was performed in 30-μm brain coronal free-floating sections [Rueda, D. et al., J. Biol. Chem. 277, 4645-50, 2002]. Sections were incubated with polyclonal anti-CB2 antibody together with anti-nestin, anti-Neu, or anti-GFAP antibodies followed by secondary staining for rabbit and mouse IgGs with highly cross-adsorbed AlexaFluor 594 and AlexaFluor 488 secondary antibodies (Molecular Probes), respectively. Neural progenitor proliferation was determined with anti-BrdU antibody and secondary anti-rat IgG-AlexaFluor 594 in sections counterstained with TOTO-3 iodide. Preparations were examined using Leica software and SP2 AOBS microscope with 2 passes with a Kalman filter and a 1024×1024 collection box. BrdU^+ cells were counted in the subgranular zone and granule cell layer of the dentate gyrus. A 1-in-6 series of adult hippocampal mouse sections located between 1.3 and 2.1 mm posterior to bregma were employed. […] Frozen mouse embryo sections were incubated with anti-BrdU antibody together with Yoyo-1 iodide, and positive cells were determined in 7 sections per animal.
Results are expressed as number of BrdU positive cells per section in the dentate gyrus of the animals.

Another assay addresses human CB1 receptors (Homo sapiens, UniProt P21554). The following applies: read-out: IC50 for binding to human CB1 receptors; as disclosed in WO 03/064359; cited from earlier work.
In the next assay the test system is substantia nigra. To be noted: mice treated with the neurotoxin MPTP; cited from earlier work.
The next assay concerns basal ganglia. To be noted: cited from earlier work.
Assay [4] concerns embryonic hippocampal neural progenitor cells. To be noted: Jiang et al. 2005; cited from earlier work.
The next assay relates to newborn neurons. The following applies: chronic administration, Jiang et al. 2005; cited from earlier work.
Another assay has as its system cannabinoid receptors. The following applies: cited from earlier work.

human CB1 receptors, sequence (P21554 whole entry): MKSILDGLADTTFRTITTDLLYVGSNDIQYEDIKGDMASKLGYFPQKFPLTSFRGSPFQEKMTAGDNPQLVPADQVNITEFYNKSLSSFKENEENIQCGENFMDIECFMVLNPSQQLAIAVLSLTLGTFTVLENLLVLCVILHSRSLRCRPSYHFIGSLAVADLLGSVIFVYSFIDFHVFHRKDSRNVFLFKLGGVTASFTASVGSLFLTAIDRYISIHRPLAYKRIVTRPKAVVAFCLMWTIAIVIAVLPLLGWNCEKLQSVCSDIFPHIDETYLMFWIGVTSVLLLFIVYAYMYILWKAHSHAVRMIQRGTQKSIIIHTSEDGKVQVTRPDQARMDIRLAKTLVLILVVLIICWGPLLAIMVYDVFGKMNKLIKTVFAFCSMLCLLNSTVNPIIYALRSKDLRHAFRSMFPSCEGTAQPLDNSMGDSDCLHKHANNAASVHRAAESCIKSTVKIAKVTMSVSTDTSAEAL

By IC50 is commonly meant the point on the concentration scale where inhibition reaches its midpoint. As to `CCCCCCC(C)(C)c1cc(OC)c(C2C=C(CO)C3CC2C3(C)C)c(OC)c1` (single isomer, unassigned; (+)) [HU-308, (+) {4-[4-(1,1-dimethylheptyl)-2,6-dimethoxyphenyl]-6,6-dimethyl-bicyclo[3.1.1]hept-2-en-2-yl}-methanol], in the assay on neural progenitors [1] (FIG. 3B), the “neurosphere generation in CB2-deficient neural progenitors” value is “neither HU-308 nor JWH-133 was able to enhance neurosphere generation” and the primary neurosphere generation result was “increased”. For the same molecule, the neural progenitor self-renewal entry in the assay with neural progenitors [1] is “increased”. Besides, the “number of BrdU-incorporating cells” value with neural progenitors [2] is given as “increased the number of BrdU-incorporating cells in a CB2-dependent manner”. In addition, the “ERK and Akt phosphorylation” value with ERK and Akt (15 min (ERK) or 2 min (Akt)) was “stimulated ERK and Akt”. Further, the “hippocampal progenitor proliferation in CB2-deficient mice” value in [3] (CB2-/- adult mice, 15 mg/kg i.p. 5 days) is reported as “lack of HU-308 agonistic effect”. The “hippocampal progenitor proliferation in vivo” value in assay [3] was “increased progenitor proliferation”. In addition, on human CB1 receptors, the IC50 is 3.6 µM. Besides, in the assay with substantia nigra, the “extent of cell death in the substantia nigra” value is recorded as “reduces the extent of cell death”. Moreover, the “GABA level and dopamine transmission in the non-lesioned side” value in the assay on basal ganglia (non-lesioned side) is “did not alter the parameters monitored”. Also, in the assay on basal ganglia (rats, intrastriatal injection of malonate), the “extent of cell death in the basal ganglia” value was “reduces the extent of cell death”.

Regarding `CCCCCCC(C)(C)c1cc(O)c2c(c1)OC(C)(C)[C@@H]1CC=C(CO)C[C@@H]21` [HU-210, 7-hydroxy-Δ^6-tetrahydrocannabinol-1,1-dimethyl-heptyl], the “proliferation and differentiation of embryonic hippocampal neural progenitor cells” value in [4] is “promotes proliferation of said embryonic cells without affecting their differentiation”. In addition, in the assay with newborn neurons, the “measures of anxiety- and depression-like behavior” value is “reduced measures of anxiety- and depression-like behavior”; the “number of newborn neurons” value is “increased the number of newborn neurons”.

On to `CCCCCCC(C)(C)c1cc(O)c2c(c1)OC(C)(C)[C@@H]1CC=C(CO)C[C@@H]21` [HU-211, 7-hydroxy-Δ^6-tetrahydrocannabinol-1,1-dimethyl-heptyl], for which the “affinity to the cannabinoid receptors” value in the assay with cannabinoid receptors is “low affinity”.

Regarding `CCCC(C)(C)c1ccc2c(c1)OC(C)(C)[C@@H]1CC=C(C)C[C@@H]21` [JWH-133], in the assay on neural progenitors [1] (FIG. 3B), the “neurosphere generation in CB2-deficient neural progenitors” value is recorded as “neither HU-308 nor JWH-133 was able to enhance neurosphere generation” and the primary neurosphere generation entry is reported as “increased”. For the same molecule, the “percentage of neurosphere number relative to vehicle incubations” value in the assay on neural progenitors [1] (adult progenitors) is given as 149±6%. In the assay on neural progenitors [1] (postnatal progenitors), the “percentage of neurosphere number relative to vehicle incubations” value turned out to be 154±22%. For the same molecule, in the assay on neural progenitors [1], the neural progenitor self-renewal result is “increased”. Also, the “number of BrdU-incorporating cells” value with neural progenitors [2] was “increased the number of BrdU-incorporating cells in a CB2-dependent manner”.

For the molecule `O=c1cc(N2CCOCC2)oc2c(-c3ccccc3)cccc12` [LY294,002], in the assay with neural progenitors [2], the “effect on HU-308 induction of cell proliferation” value was “prevented by both inhibitors”.

`COc1cccc(-c2cc(=O)c3ccccc3o2)c1N` [PD98059]: the “effect on HU-308 induction of cell proliferation” value with neural progenitors [2] is reported as “prevented by both inhibitors”.

As to SR144528, in the assay with neural progenitors [1] (2 μM with HU-308 or JWH-133 30 nM, FIG. 3B, 3C), the “effect on agonist-increased primary neurosphere generation and self-renewal” value is “both actions were prevented”. For the same molecule, the “effect on agonist-increased neurosphere generation in postnatal and adult progenitors” value with neural progenitors [1] (data not shown) is reported as “this action was prevented”. The “effect on HU-308 stimulation of ERK and Akt” value in the assay with ERK and Akt is listed as “this action was prevented”. In assay [3], the “hippocampal progenitor proliferation in vivo” value is reported as “exerted the opposite action”.
